Values quoted from earlier work in patent publication US20140328949A1, “ELECTROCHEMICALLY GENERATED ANTIMICROBIAL SODIUM HYDROXIDE SOLUTION” (priority 2013, published 2014).

Tested on: hairy foot warts
Conditions: for efficacy of footbath treatment against hairy foot warts: footbaths, formalin 5%, zinc sulfate 3× footbaths, spread and mild lesions

Compound	efficacy of footbath treatment against hairy foot warts	efficacy against more serious hairy foot wart lesions (3× footbaths, 1990 study)
O=S(=O)([O-])[O-].[Cu+2] [copper sulfate, Copper sulfate]	not an effective treatment	
O=S(=O)([O-])[O-].[Zn+2] [Zinc sulfate]	effective at controlling the spread of hairy foot warts and treating mild lesions	ineffective
C=O [formalin]	effective in controlling hairy foot wart outbreaks	
